Assays:
washed human platelets = test: Arachidonic acid-induced platelet aggregation (turbidimetric aggregometer); assay type: cell-based; details: for IC50: Platelet, 0.05 h, washed human platelets treated 3 min, then arachidonic acid (100 μM), mean ± SEM, n = 3, read-out: Antiplatelet IC50
Procedure: All bioactivity data processing, including the calculation of inhibition percentage, mean and corresponding standard error of the mean (SEM), and IC50 values, was performed by GraphPad Prism 8.0 (La Jolla, CA, USA). IC50 values were calculated from the sigmoidal dose–response curves obtained by the log(inhibitor) vs. response and variable slope (DPPH assay) or the log(inhibitor) vs. normalised response and variable slope nonlinear regression model. On the results obtained, no statistical evaluation was performed; instead, differences greater than two-fold were considered relevant. Plotting of the antiplatelet and COX-1 inhibitory IC50 values and the linear regression of the data was performed by Microsoft Excel.
Human platelet suspension (3 × 10^8/mL in Tyrode’s buffer) was prepared as previously described. The protocol for this study was approved by the institutional review board of Kaohsiung Medical University Hospital (Kaohsiung City, Taiwan). Platelets pre-treated with DMSO (vehicle control) or test compounds were stimulated with arachidonic acid (AA), and platelet aggregation was measured using turbidimetric aggregometer (Chrono-Log Co., Havertown, PA, USA) at 37 °C under stirring conditions (1200 rpm).

[1] = Oxygen radical absorbance capacity (ORAC); details: 1 µM sample; mean ± SEM, n = 3
Procedure: AAPH ((2,20-Azobis(2-methyl-propionamidine) dihydrochloride) free radical and Trolox standard were purchased from Sigma-Aldrich Hungary. Fluorescein was purchased from Fluka Analytical, Tokyo, Japan. ORAC assay was carried out In a 96-well microplate based on the method from previous study. Briefly, 20 µL of the samples (1 µM final concentration, dissolved in phosphate buffer, pH = 7.4, containing 1% MeOH) were mixed with 60 µL of AAPH (12 mM final concentration, dissolved in phosphate buffer, pH = 7.4) and 120 µL of fluorescein solution (70 nM final concentration, dissolved in phosphate buffer), then the fluorescence was measured (excitation at λ = 485 nm, and emission at λ = 520 nm) through 3 h with 1.5-min cycle intervals with a BMG Labtech FluoStar Optima plate-reader. All experiments were carried out in triplicate, and Trolox was used as standard. The antioxidant capacity is expressed as Trolox Equivalent (TE), as calculated using GraphPad Prism 8.0 (La Jolla, CA, USA).

[2] = Peroxynitrite scavenging (pyrogallol red); details: % inhibition at 500 µM; mean ± SEM, n = 3
Procedure: Peroxynitrite was synthesised by a continuous flow system using syringe pumps as published previously. Briefly, an acidic solution of hydrogen peroxide (0.6 M H2O2, 0.7 M HCl) was pumped to a junction alongside of sodium nitrite solution (0.6 M) at a flow rate of 1.5 mL/min. After passing 10 cm of tubing, it was mixed with a sodium hydroxide solution (1.5 M), also pumped at 1.5 mL/min. The resulting peroxynitrite solution was a bright yellow colour. The tubing around the reaction was submerged in ice. The concentration of the solution was determined by spectrophotometry and was adjusted to 30 mM with 0.1 M NaOH solution.
In a 96-well microplate 245 µL of pyrogallol red (100 µM final concentration, dissolved in 0.1 M glycine buffer) was mixed with 50 µL of sample (0.5 mM final concentration, dissolved in DMSO) and 5 µL ONOO^– solution (500 µM final concentration, freshly prepared). After mixing and keeping it at room temperature for 30 min the absorbance was measured at 550 nm using a FluoStar Optima plate reader (software version 2.20R2, BMG Labtech, Ortenberg, Germany).

xanthine oxidase (XO) = biological target: T1, xanthine oxidase (XO) (Bos taurus, UniProt P80457); test: Xanthine oxidase inhibition, spectrophotometric; assay type: biochemical; details: read-out: XO Inhibition (%)
T1 construct: purchased Sigma (Merck KGaA)
Procedure: The xanthine oxidase (XO) inhibitory activity of the compounds was determined using continuous spectrophotometric rate based on a modified protocol of Sigma. […]. In a 96-well plate, the final reaction mixture consisted of 10 µL of sample (dissolved in DMSO, […] stock solution, 100 µM final), 100 µL of xanthine solution (0.15 mM, pH = 7.4), 140 µL of buffer (potassium phosphate, pH = 7.5) and 50 µL of XO (0.2 units/mL). When measuring the enzyme activity, control buffer was used in place of the sample. Allopurinol was applied as a control. The reaction was initiated by the automatic addition of 50 µL of XO solution. The absorbance of XO-induced uric acid production from xanthine was measured at 290 nm for 3 min in a 96-well plate on a BMG Labtech FluoStar Optima plate reader. The inhibitory percentage values were calculated by using Graph Pad Prism 8.0 (La Jolla, CA, USA).

T1 sequence (P80457 2-1332 limits assumed): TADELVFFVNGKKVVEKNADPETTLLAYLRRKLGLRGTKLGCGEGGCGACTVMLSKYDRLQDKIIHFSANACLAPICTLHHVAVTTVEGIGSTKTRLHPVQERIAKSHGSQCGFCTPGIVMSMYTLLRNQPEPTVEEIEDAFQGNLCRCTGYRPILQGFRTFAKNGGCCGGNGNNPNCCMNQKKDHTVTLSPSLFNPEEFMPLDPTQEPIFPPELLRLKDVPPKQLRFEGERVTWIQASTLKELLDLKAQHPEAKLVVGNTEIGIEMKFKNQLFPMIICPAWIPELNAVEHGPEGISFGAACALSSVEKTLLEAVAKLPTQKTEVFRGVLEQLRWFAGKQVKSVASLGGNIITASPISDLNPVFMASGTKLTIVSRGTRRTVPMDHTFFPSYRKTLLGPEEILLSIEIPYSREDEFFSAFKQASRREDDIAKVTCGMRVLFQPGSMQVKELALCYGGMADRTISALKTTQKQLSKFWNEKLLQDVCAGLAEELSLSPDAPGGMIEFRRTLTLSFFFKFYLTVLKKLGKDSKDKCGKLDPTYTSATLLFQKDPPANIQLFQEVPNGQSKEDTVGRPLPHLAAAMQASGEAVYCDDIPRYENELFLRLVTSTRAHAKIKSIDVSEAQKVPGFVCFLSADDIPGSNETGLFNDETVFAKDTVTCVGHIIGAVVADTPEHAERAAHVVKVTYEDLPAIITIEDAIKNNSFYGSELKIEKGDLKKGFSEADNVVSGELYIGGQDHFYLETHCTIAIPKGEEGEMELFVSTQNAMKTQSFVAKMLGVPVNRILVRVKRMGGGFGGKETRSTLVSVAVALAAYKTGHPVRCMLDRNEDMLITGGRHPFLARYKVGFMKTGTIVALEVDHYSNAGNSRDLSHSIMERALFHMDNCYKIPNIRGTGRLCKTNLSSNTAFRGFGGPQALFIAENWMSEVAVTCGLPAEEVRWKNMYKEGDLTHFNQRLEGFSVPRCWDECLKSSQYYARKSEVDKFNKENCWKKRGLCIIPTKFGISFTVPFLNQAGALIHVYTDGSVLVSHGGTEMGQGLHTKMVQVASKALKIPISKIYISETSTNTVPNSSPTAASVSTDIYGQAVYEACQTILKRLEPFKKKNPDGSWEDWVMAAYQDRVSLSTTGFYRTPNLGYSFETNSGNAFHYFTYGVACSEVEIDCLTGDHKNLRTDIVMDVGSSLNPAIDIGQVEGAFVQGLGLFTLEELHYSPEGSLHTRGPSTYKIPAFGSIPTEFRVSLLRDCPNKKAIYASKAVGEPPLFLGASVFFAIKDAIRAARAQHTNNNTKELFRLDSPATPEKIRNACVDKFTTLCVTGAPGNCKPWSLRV

SMILES	times weaker antiplatelet effect than the most promising compounds (washed human platelets; AA-induced platelet aggregation, ratio of IC50 values)	IC50 (washed human platelets) [µM]	ORAC TE [1]	ONOO^– Scavenging (%) [2] [%]	inhibition at 100 µM (xanthine oxidase (XO)) [%]	antiplatelet activity (in words) (washed human platelets; AA-induced platelet aggregation)
CCCCC[C@H](O)CC(=O)CCc1ccc(O)c(OC)c1 [Compound 1, (S)-5-hydroxy-1-(4-hydroxy-3-methoxyphenyl)decan-3-one]	up to 22 times	45.9 ± 5.1	1.30 ± 0.04 Trolox equivalents (TE)	<5.0	< 5	–
CCCCC[C@H](O)C[C@H](O)CCc1ccc(O)c(OC)c1 [Compound 5, (3R,5S)-1-(4-hydroxy-3-methoxyphenyl)decane-3,5-diol]	–	51.7 ± 2.7	2.30 ± 0.05 Trolox equivalents (TE)	<5.0	< 5	–
CCCCCc1cc(/C=C/c2ccc(O)cc2)[nH]n1 [Compound 16, (E)-4-(2-(3-pentyl-1H-pyrazol-5-yl)vinyl)phenol]	–	3.5 ± 0.9	2.88 ± 0.16 Trolox equivalents (TE)	<5.0	16 ± 4.05	–
CCCCCc1cc(/C=C/c2ccc(O)cc2)on1 [Compound 18, (E)-4-(2-(3-pentylisoxazol-5-yl)vinyl)phenol]	–	32 ± 10.1	1.76 ± 0.06 Trolox equivalents (TE)	5.64 ± 1.31	< 5	–
CCCCCCCNC(=O)CCc1ccc(O)c(OC)c1 [Compound 22]	–	35.9 ± 23.7	1.62 ± 0.004 Trolox equivalents (TE)	<5.0	< 5	only moderate activity
CCCCCc1cc(CCc2ccc(O)c(OC)c2)[nH]n1 [Compound 14, 2-methoxy-4-(2-(3-pentyl-1H-pyrazol-5-yl)ethyl)phenol]	–	4.1 ± 1.2	0.44 ± 0.07 Trolox equivalents (TE)	<5.0	10.1 ± 1.65	–
CCCCC/C=C/C(=O)CCc1ccc(O)c(OC)c1 [Compound 2, 6-shogaol]	–	2.8 ± 0.5	1.10 ± 0.03 Trolox equivalents (TE)	<5.0	< 5	–
CCCCCCCC(=O)CCc1ccc(O)c(OC)c1 [Compound 3, 4,5-dihydro-6-shogaol]	–	2.1 ± 1	1.36 ± 0.02 Trolox equivalents (TE)	<5.0	< 5	–
CCCCCc1cc(CCc2ccc(O)cc2)[nH]n1 [Compound 15, 4-(2-(3-pentyl-1H-pyrazol-5-yl)ethyl)phenol]	–	> 100	1.00 ± 0.02 Trolox equivalents (TE)	<5.0	12.3 ± 0.9	–
CCCCC[C@H](O)C[C@@H](O)CCc1ccc(O)c(OC)c1 [Compound 6, (3S,5S)-1-(4-hydroxy-3-methoxyphenyl)decane-3,5-diol]	–	45.1 ± 6	1.12 ± 0.03 Trolox equivalents (TE)	<5.0	< 5	–
CCCCCc1cc(/C=C/c2ccc(O)c(OC)c2)on1 [Compound 17, (E)-2-methoxy-4-(2-(3-pentylisoxazol-5-yl)vinyl)phenol]	–	3.1 ± 0.9	0.77 ± 0.20 Trolox equivalents (TE)	38.40 ± 3.05	< 5	–
CCCCCCCC(CCc1ccc(O)c(OC)c1)=NO [Compound 4, 1-(4-hydroxy-3-methoxyphenyl)decan-3-one oxime]	–	5.2 ± 0.4	0.47 ± 0.09 Trolox equivalents (TE)	<5.0	10.6 ± 2.3	–

Source: publication PMC10045534, “Preparation and Evaluation of 6-Gingerol Derivatives as Novel Antioxidants and Antiplatelet Agents” (Antioxidants, 2023)
